Measured values reported in PubChem BioAssay (NCI).
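Compound exposure: 48 hours, 5 concentrations, 96-well plates. At the TGI there is no net growth.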

What follows are molecules tested on SW-620 colon (assay: DTP human tumour cell line panel, 48 h).

Compound | TGI
CN(CCN(C)C(=O)CCn1cc(F)c(=O)[nH]c1=O)C(=O)CCn1cc(F)c(=O)[nH]c1=O | > 100 µM
CCOC1c2cc(C(C)C)c(O)c(O)c2[C@@]23CCCC(C)(C)C2C1OC3=O (stereo not given in full) | > 100 µM
C=CN1C(=O)[C@H](Oc2ccccc2)[C@@H]1c1ccccc1 | > 100 µM
CS(=O)(=O)c1ccc(-c2cc(-c3ccc(S(C)(=O)=O)cc3)[n+](-c3cc(-c4ccccc4)c([O-])c(-c4ccccc4)c3)c(-c3ccc(S(C)(=O)=O)cc3)c2)cc1 | > 100 µM
CC(C)=CC1CC(=[N+]=[N-])C(=O)C1(C)C (stereo not given) | > 100 µM
O=C(CSc1c2ccccc2nc2ccccc12)Nc1ccccc1-c1ccccc1NC(=O)CSc1c2ccccc2nc2ccccc12 | > 100 µM
O=S(=O)(c1ccccc1)N1N=C2c3ccccc3CCC[C@H]2C1c1ccccc1 (stereo not given in full) | > 100 µM

The molecules below were run on ACHN renal (assay: DTP human tumour cell line panel, 48 h).

Compound | TGI
COC(=O)[C@@]1(C)/C(=N/NS(=O)(=O)c2ccc(C)cc2)CCC[C@@H]1C | > 100 µM
CN(CCN(C)C(=O)CCn1cc(F)c(=O)[nH]c1=O)C(=O)CCn1cc(F)c(=O)[nH]c1=O | > 100 µM
CCOC1c2cc(C(C)C)c(O)c(O)c2[C@@]23CCCC(C)(C)C2C1OC3=O (stereo not given in full) | > 100 µM
C=CN1C(=O)[C@H](Oc2ccccc2)[C@@H]1c1ccccc1 | > 100 µM
CS(=O)(=O)c1ccc(-c2cc(-c3ccc(S(C)(=O)=O)cc3)[n+](-c3cc(-c4ccccc4)c([O-])c(-c4ccccc4)c3)c(-c3ccc(S(C)(=O)=O)cc3)c2)cc1 | > 100 µM
CC(C)=CC1CC(=[N+]=[N-])C(=O)C1(C)C (stereo not given) | > 100 µM
O=C(CSc1c2ccccc2nc2ccccc12)Nc1ccccc1-c1ccccc1NC(=O)CSc1c2ccccc2nc2ccccc12 | > 100 µM
O=S(=O)(c1ccccc1)N1N=C2c3ccccc3CCC[C@H]2C1c1ccccc1 (stereo not given in full) | > 100 µM

These molecules were tested on NCI-H522 lung (assay: DTP human tumour cell line panel, 48 h).

Compound | TGI
COC(=O)[C@@]1(C)/C(=N/NS(=O)(=O)c2ccc(C)cc2)CCC[C@@H]1C | > 100 µM
CN(CCN(C)C(=O)CCn1cc(F)c(=O)[nH]c1=O)C(=O)CCn1cc(F)c(=O)[nH]c1=O | 12.5 µM
CCOC1c2cc(C(C)C)c(O)c(O)c2[C@@]23CCCC(C)(C)C2C1OC3=O (stereo not given in full) | 98.6 µM
C=CN1C(=O)[C@H](Oc2ccccc2)[C@@H]1c1ccccc1 | 91.3 µM
CS(=O)(=O)c1ccc(-c2cc(-c3ccc(S(C)(=O)=O)cc3)[n+](-c3cc(-c4ccccc4)c([O-])c(-c4ccccc4)c3)c(-c3ccc(S(C)(=O)=O)cc3)c2)cc1 | > 100 µM
CC(C)=CC1CC(=[N+]=[N-])C(=O)C1(C)C (stereo not given) | > 100 µM
O=C(CSc1c2ccccc2nc2ccccc12)Nc1ccccc1-c1ccccc1NC(=O)CSc1c2ccccc2nc2ccccc12 | 37.2 µM
O=S(=O)(c1ccccc1)N1N=C2c3ccccc3CCC[C@H]2C1c1ccccc1 (stereo not given in full) | > 100 µM

These molecules were tested on HCT-116 colon (assay: DTP human tumour cell line panel, 48 h).

Compound | TGI
COC(=O)[C@@]1(C)/C(=N/NS(=O)(=O)c2ccc(C)cc2)CCC[C@@H]1C | > 100 µM
CN(CCN(C)C(=O)CCn1cc(F)c(=O)[nH]c1=O)C(=O)CCn1cc(F)c(=O)[nH]c1=O | > 100 µM
CCOC1c2cc(C(C)C)c(O)c(O)c2[C@@]23CCCC(C)(C)C2C1OC3=O (stereo not given in full) | > 100 µM
C=CN1C(=O)[C@H](Oc2ccccc2)[C@@H]1c1ccccc1 | > 100 µM
CS(=O)(=O)c1ccc(-c2cc(-c3ccc(S(C)(=O)=O)cc3)[n+](-c3cc(-c4ccccc4)c([O-])c(-c4ccccc4)c3)c(-c3ccc(S(C)(=O)=O)cc3)c2)cc1 | > 100 µM
CC(C)=CC1CC(=[N+]=[N-])C(=O)C1(C)C (stereo not given) | > 100 µM
O=C(CSc1c2ccccc2nc2ccccc12)Nc1ccccc1-c1ccccc1NC(=O)CSc1c2ccccc2nc2ccccc12 | > 100 µM
O=S(=O)(c1ccccc1)N1N=C2c3ccccc3CCC[C@H]2C1c1ccccc1 (stereo not given in full) | > 100 µM

Each molecule was assayed on NCI-H23 lung (assay: DTP human tumour cell line panel, 48 h).

Compound | TGI
COC(=O)[C@@]1(C)/C(=N/NS(=O)(=O)c2ccc(C)cc2)CCC[C@@H]1C | > 100 µM
CN(CCN(C)C(=O)CCn1cc(F)c(=O)[nH]c1=O)C(=O)CCn1cc(F)c(=O)[nH]c1=O | > 100 µM
CCOC1c2cc(C(C)C)c(O)c(O)c2[C@@]23CCCC(C)(C)C2C1OC3=O (stereo not given in full) | > 100 µM
C=CN1C(=O)[C@H](Oc2ccccc2)[C@@H]1c1ccccc1 | 60 µM
